Consider 31 compounds from PMC10674894 (Viruses, 2023).

One data set deals with CHIKV DRDE-07. Description: In vitro screening against CHIKV (CPE inhibition and MTT cell viability). It is filed as cell-based, chikungunya virus. As to conditions: for % Cell viability / CPE: Table S1, CHIKV-infected Vero cells; for % Cell viability / Cell Viability: 72 hpi; for % Cell viability: MTT assay; for CPE: arbitrary score of cytopathic effect at >48 hpi; for Cell Viability: CHIKV-infected Vero cells treated at MNTD, MTT, cell control + DMSO = 100%. In general terms: Formazan colour is commonly taken as a measure of viable cells.

Another data set has as its system Vero cells. Description: Cytotoxicity MTT assay in Vero cells (MNTD, CC50). It counts as cell-based, African green monkey.
Where [1] appears, read: maximum nontoxic dose in Vero cells, MTT.

For `CC(=O)Cc1noc(-c2ccc([N+](=O)[O-])cc2)n1` [DCR77, 1-[5-(4-nitrophenyl)-1,2,4-oxadiazol-3-yl]propan-2-one], in the data set on CHIKV DRDE-07, the “% Cell viability” value amounted to 10.43% and the CPE entry is given as “++++ (>60% (++++))”. The same compound had an MNTD with Vero cells (Table S1, Vero cells) of 125 µM.
In the case of `O=C(NNC(=O)c1cccnc1)c1ccccc1` [DCR4, N'-benzoylnicotinohydrazide], in the data set with CHIKV DRDE-07, the “% Cell viability” value was 15% and the CPE entry is given as “++++ (>60% (++++))”. The MNTD in the data set with Vero cells (Table S1, Vero cells) amounted to 31.25 µM.
With `CC1=C(C(=O)OCC[N+](C)(C)C)C(c2ccc(C)cc2)NC(=O)N1` (centres unmarked) [DCR105, N,N,N-trimethyl-2-({[6-methyl-4-(4-methylphenyl)-2-oxo-1,2,3,4-tetrahydropyrimidin-5-yl]carbonyl}oxy)ethanaminium], in the data set on CHIKV DRDE-07, the “% Cell viability” value amounted to 2.45% and the CPE entry was “++++ (>60% (++++))”. Moreover, the MNTD in the data set on Vero cells (Table S1, Vero cells) amounted to 125 µM.
As for `CC(C)C1c2c(ccc3ccccc23)Oc2ccc3ccccc3c21` [DCR120, 2‐(propan‐2‐yl)‐13‐oxapentacyclo[12.8.0.0³,¹².0⁴,⁹.0¹⁷,²²]docosa‐1(14),3,5,7,9,11,15,17(22),18,20‐decaene], in the data set on CHIKV DRDE-07, the “% Cell viability” value amounted to 19.24% and the CPE result is given as “++++ (>60% (++++))”. Moreover, the MNTD in the data set with Vero cells (Table S1, Vero cells) worked out at 31.25 µM.
For `O=C(O)c1ccc(/C=N/NC(=O)c2ccncc2)cc1` [DCR43, (E)-4-((2-isonicotinoylhydrazono)methyl)benzoic acid], in the data set on CHIKV DRDE-07, the “% Cell viability” value came out at 16.82% and the CPE entry is recorded as “++++ (>60% (++++))”. This compound came in with an MNTD in the data set on Vero cells (Table S1, Vero cells) of 31.25 µM.
`Brc1cc2c(c3ncccc13)Oc1cc(Br)c3cccnc3c1O2` [DCR 2, 5,12-dibromo-[1,4]dioxino[2,3-h:5,6-h’]diquinoline]: in the data set with CHIKV DRDE-07, the “Cell Viability” value is reported as 63%. Also, the CPE result in the data set with CHIKV DRDE-07 was “++ (50-30% (++))”. Further, the MNTD was 50 µM with Vero cells (Table S1, Vero cells) and 50 µM in the data set with Vero cells (setting [1]).
On to `CC1=C(C(=O)OCC[N+](C)(C)C)C(c2ccc([N+](=O)[O-])cc2)NC(=O)N1` (centres unmarked) [DCR104, N,N,N-trimethyl-2-({[6-methyl-4-(4-nitrophenyl)-2-oxo-1,2,3,4-tetrahydropyrimidin-5-yl]carbonyl}oxy)ethanaminium], for which, in the data set on CHIKV DRDE-07, the “% Cell viability” value was found to be 9.09% and the CPE result is “++++ (>60% (++++))”. This compound came in with an MNTD in the data set on Vero cells (Table S1, Vero cells) of 125 µM.
With `O=C(N/N=C/c1ccco1)c1ccncc1` [DCR36, (E)-N'-(furan-2-ylmethylene)isonicotinohydrazide], in the data set with CHIKV DRDE-07, the “% Cell viability” value worked out at 5% and the CPE entry is “++++ (>60% (++++))”. The MNTD in the data set on Vero cells (Table S1, Vero cells) turned out to be 62.5 µM.
As for `CC1=C(C(=O)OCCN(C)C)C(c2ccc(Cl)cc2)NC(=O)N1` (centres unmarked) [DCR108, 2-(dimethylamino)ethyl 4-(4-chlorophenyl)-6-methyl-2-oxo-1,2,3,4-tetrahydropyrimidine-5-carboxylate], in the data set on CHIKV DRDE-07, the “% Cell viability” value was 13.99% and the CPE entry was “++++ (>60% (++++))”. In the data set on Vero cells (Table S1, Vero cells), this compound had an MNTD of 62.5 µM.
For the compound `O=C(N/N=C/c1ccccc1Br)c1ccncc1` [DCR38, (E)-N'-(2-bromobenzylidene)isonicotinohydrazide], in the data set on CHIKV DRDE-07, the “% Cell viability” value stood at 25.1% and the CPE result is “++++ (>60% (++++))”. In the data set with Vero cells (Table S1, Vero cells), this compound displayed an MNTD of 31.25 µM.
Take `CCOc1ccc(C2NC(=O)NC(C)=C2C(=O)OCC[N+](C)(C)C)cc1` (centres unmarked) [DCR75, {2-[4-(4-ethoxyphenyl)-6-methyl-2-oxo-1,2,3,4-tetrahydropyrimidine-5-carbonyloxy]ethyl}trimethylazanium]: in the data set with CHIKV DRDE-07, the “% Cell viability” value was 10.21% and the CPE entry was “++++ (>60% (++++))”. The same compound displayed an MNTD in the data set on Vero cells (Table S1, Vero cells) of 31.25 µM.
`C#CCOC(=O)C1=C(C)NC(=O)NC1c1ccc(F)cc1` (centres unmarked) [DCR90, prop-2-yn-1-yl 4-(4-fluorophenyl)-6-methyl-2-oxo-1,2,3,4-tetrahydropyrimidine-5-carboxylate]: in the data set with CHIKV DRDE-07, the “% Cell viability” value is given as 12.59% and the CPE entry was “++++ (>60% (++++))”. The same compound registered an MNTD with Vero cells (Table S1, Vero cells) of 433.62 µM.
Take `Cc1ccccc1/C=N/NC(=O)c1cccnc1` [DCR15, (E)-N'-(2-methylbenzylidene)nicotinohydrazide]: in the data set with CHIKV DRDE-07, the “% Cell viability” value stood at 14.76% and the CPE entry is “++++ (>60% (++++))”. This compound yielded an MNTD in the data set on Vero cells (Table S1, Vero cells) of 31.25 µM.
On to `O=C1NC(c2ccc(F)cc2)c2c(ccc3ccccc23)O1` (centres unmarked) [DCR65, 1-(4-fluorophenyl)-1H,2H,3H-naphtho[1,2-e][1,3]oxazin-3-one], for which, in the data set on CHIKV DRDE-07, the “% Cell viability” value came out at 12.63% and the CPE result is given as “++++ (>60% (++++))”. For the same compound, in the data set with Vero cells (Table S1, Vero cells), the MNTD turned out to be 53.27 µM.
In the case of `N#Cc1ccccc1N1CCOCC1` [DCR146, 2-Morpholin-4-yl-benzonitrile], in the data set with CHIKV DRDE-07, the “% Cell viability” value is on record as -3.98% and the CPE entry is reported as “++++ (>60% (++++))”. The same compound showed an MNTD with Vero cells (Table S1, Vero cells) of 250 µM.
Taken in the same sequence, the figures for `C/C(=N\NC(=O)c1ccncc1)c1c(O)ccc2ccccc12` [DCR52, N'-[(1E)-1-(2-hydroxynaphthalen-1-yl)ethylidene]pyridine-4-carbohydrazide] were 30.87%, “++++ (>60% (++++))” and 31.25 µM.
In the case of `CC1(C)CC(=O)C2=C(C1)OC1=C(C(=O)CC(C)(C)C1)C2c1ccc(C2C3=C(CC(C)(C)CC3=O)OC3=C2C(=O)CC(C)(C)C3)cc1` [DCR133, 3,3,6,6‐tetramethyl‐9‐[4‐(3,3,6,6‐tetramethyl‐1,8‐dioxo‐dodecahydro‐1H‐xanthen‐9‐yl)phenyl]‐2,3,4,5,6,7,8,9‐octahydro‐1H‐xanthene‐1,8‐dione], in the data set on CHIKV DRDE-07, the “% Cell viability” value was 11.14% and the CPE result was “++++ (>60% (++++))”. The same compound came in with an MNTD with Vero cells (Table S1, Vero cells) of 125 µM.
Regarding `COc1ccc(C2NC(=O)NC(C)=C2C(=O)OCCc2ccccc2)cc1` (centres unmarked) [DCR97, 2-phenylethyl 4-(4-methoxyphenyl)-6-methyl-2-oxo-1,2,3,4-tetrahydropyrimidine-5-carboxylate], in the data set with CHIKV DRDE-07, the “% Cell viability” value was 11.19% and the CPE result is recorded as “++++ (>60% (++++))”. The MNTD in the data set with Vero cells (Table S1, Vero cells) was found to be 170.57 µM.
On to `O=C(O)c1ccc(/C=N/NC(=O)c2cccnc2)cc1` [DCR28, (E)-4-((2-nicotinoylhydrazono)methyl)benzoic acid], for which, in the data set on CHIKV DRDE-07, the “% Cell viability” value was 15.63% and the CPE entry is on record as “++++ (>60% (++++))”. For the same compound, the MNTD with Vero cells (Table S1, Vero cells) turned out to be 62.5 µM.
Take `O=C(CCl)NNC(=O)c1cccnc1` [DCR8, N'-(2-chloroacetyl)nicotinohydrazide]: in the data set on CHIKV DRDE-07, the “% Cell viability” value came to 13.8% and the CPE result is on record as “++++ (>60% (++++))”. Besides, in the data set with Vero cells (Table S1, Vero cells), the MNTD was determined as 31.25 µM.
For `O=C(N/N=C/c1cccc([N+](=O)[O-])c1)c1cccnc1` [DCR19, (E)-N'-(3-nitrobenzylidene)nicotinohydrazide], in the data set on CHIKV DRDE-07, the “% Cell viability” value is on record as 20.39% and the CPE entry is on record as “++++ (>60% (++++))”. The MNTD in the data set with Vero cells (Table S1, Vero cells) was determined as 62.5 µM.
For `COc1cccc2nc(N)nc(N)c12` [DCR 139, 5-methoxy-quinazoline-2,4-diamine], the “Cell Viability” value in the data set with CHIKV DRDE-07 was 57%. Also, the CPE result in the data set with CHIKV DRDE-07 is on record as “++ (50-30% (++))”. The MNTD in the data set with Vero cells (Table S1, Vero cells) is recorded as 250 µM; with Vero cells (setting [1]), 250 µM.
Regarding `C#CCOC(=O)C1=C(C)NC(=O)NC1c1cccc(Cl)c1` (centres unmarked) [DCR89, prop-2-yn-1-yl 4-(3-chlorophenyl)-6-methyl-2-oxo-1,2,3,4-tetrahydropyrimidine-5-carboxylate], in the data set on CHIKV DRDE-07, the “% Cell viability” value is listed as 10.94% and the CPE result is “++++ (>60% (++++))”. In addition, in the data set on Vero cells (Table S1, Vero cells), the MNTD turned out to be 205.1 µM.
As for `CC1CN(c2ccc(C#N)c(Cl)c2)CC(C)N1` (centres unmarked) [DCR148, 2-Chloro-4-(3,5-dimethyl-piperazin-1-yl)-benzonitrile], in the data set with CHIKV DRDE-07, the “% Cell viability” value was determined as 14.42% and the CPE result is recorded as “++++ (>60% (++++))”. The compound also came in with an MNTD in the data set with Vero cells (Table S1, Vero cells) of 125 µM.
`C/C(=N\NC(=O)c1ccncc1)c1ccccc1N` [DCR51, (E)-2-(1-(2-isonicotinoylhydrazono)ethyl)benzenaminium]: in the data set with CHIKV DRDE-07, the “% Cell viability” value is reported as -2.93% and the CPE result is given as “++++ (>60% (++++))”. The MNTD in the data set on Vero cells (Table S1, Vero cells) came to 62.5 µM.
On to `O=C(N/N=C/c1ccc(Cl)cc1Cl)c1ccncc1` [DCR41, (E)-N'-(2,4-dichlorobenzylidene)isonicotinohydrazide], for which, in the data set with CHIKV DRDE-07, the “% Cell viability” value was 35.79% and the CPE result is given as “++++ (>60% (++++))”. For the same compound, the MNTD with Vero cells (Table S1, Vero cells) was determined as 31.25 µM.
Regarding `CC1=C(C(=O)OCCN(C)C)C(c2ccc(C)cc2)NC(=O)N1` (centres unmarked) [DCR74, 2-(dimethylamino)ethyl 6-methyl-4-(4-methylphenyl)-2-oxo-1,2,3,4-tetrahydropyrimidine-5-carboxylate], in the data set with CHIKV DRDE-07, the “% Cell viability” value was found to be 12.75% and the CPE result was “++++ (>60% (++++))”. In the data set with Vero cells (Table S1, Vero cells), this compound gave an MNTD of 31.25 µM.
For `O=C(N/N=C/c1cccc(Br)c1)c1ccncc1` [DCR37, (E)-N'-(3-bromobenzylidene)isonicotinohydrazide] the same measures were 14.36%, “++++ (>60% (++++))” and 31.25 µM.
Take `CC(=O)Cc1noc(-c2ccncc2)n1` [DCR82, 1-[5-(pyridin-4-yl)-1,2,4-oxadiazol-3-yl]propan-2-one]: in the data set on CHIKV DRDE-07, the “% Cell viability” value is on record as 14.42% and the CPE entry was “++++ (>60% (++++))”. The MNTD in the data set on Vero cells (Table S1, Vero cells) came out at 125 µM.
With `COc1ccc(C2NC(=O)NC(C)=C2C(=O)OCC[N+](C)(C)C)cc1` (centres unmarked) [DCR107, {2‐[4‐(4‐methoxyphenyl)‐6‐methyl‐2‐oxo‐1,2,3,4‐tetrahydropyrimidine‐5‐carbonyloxy]ethyl}trimethylazanium], in the data set on CHIKV DRDE-07, the “% Cell viability” value was 13.22% and the CPE entry is listed as “++++ (>60% (++++))”. This compound came in with an MNTD in the data set with Vero cells (Table S1, Vero cells) of 62.5 µM.
In the case of `N#Cc1ccccc1N1CCCCC1` [DCR140, 2-Piperidin-1-yl-benzonitrile], in the data set on CHIKV DRDE-07, the “% Cell viability” value was found to be 14.97% and the CPE result is on record as “++++ (>60% (++++))”. Moreover, the MNTD in the data set with Vero cells (Table S1, Vero cells) turned out to be 250 µM.
